Test results published in the supplement of paper PMC10307832.

Columns and labels:
Assay in all cases: relative viability (nuclei count vs DMSO), 5 days (fraction); higher = more cells survive
LOU-NH91 = test system: LOU-NH91
Procedure, shortened: (§1)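 Lung cancer cell lines in 1536-well plates got either a single drug or a fixed anchor-drug dose together with five library-drug doses (not always all listed) in √10 steps, by pin tool, on the day after seeding. Nuclei were counted after 5 days, and relative viability is the treated-to-vehicle ratio of nuclei counts. Values are medians of duplicate plates.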

NCI-H460 = test system: NCI-H460
Procedure, shortened: as §1

NCI-H1734 = test system: NCI-H1734
Procedure, shortened: as §1

NCI-H1793 = test system: NCI-H1793
Procedure, shortened: as §1

NCI-H2228 = test system: NCI-H2228
Procedure, shortened: as §1

ABC-1 = test system: ABC-1
Procedure, shortened: as §1

NCI-H1755 = test system: NCI-H1755
Procedure, shortened: as §1

CAL-12T = test system: CAL-12T
Procedure, shortened: as §1

NCI-H1395 = test system: NCI-H1395
Procedure, shortened: as §1

NCI-H2087 = test system: NCI-H2087
Procedure, shortened: as §1

ChaGo-K-1 = test system: ChaGo-K-1
Procedure, shortened: as §1

NCI-H1944 = test system: NCI-H1944
Procedure, shortened: as §1

LU99A = test system: LU99A
Procedure, shortened: as §1

UMC-11 = test system: UMC-11
Procedure, shortened: as §1

RERF-LC-KJ = test system: RERF-LC-KJ
Procedure, shortened: as §1

NCI-H1651 = test system: NCI-H1651
Procedure, shortened: as §1

NCI-H2405 = test system: NCI-H2405
Procedure, shortened: as §1

LC-2-ad = test system: LC-2-ad
Procedure, shortened: as §1

NCI-H3122 = test system: NCI-H3122
Procedure, shortened: as §1

PC-3 [JPC-3] = test system: PC-3 [JPC-3]
Procedure, shortened: as §1

NCI-H2170 = test system: NCI-H2170
Procedure, shortened: as §1

## NC(=O)Nc1cc(-c2cccc(F)c2)sc1C(=O)N[C@H]1CCCNC1 [AZD7762] + CCNC(=O)c1noc(-c2cc(C(C)C)c(O)cc2O)c1-c1ccc(CN2CCOCC2)cc1 [Luminespib] (partner 0.01 µM)
LOU-NH91; first compound 0.01 µM
  relative viability: 0.302
LOU-NH91; first compound 0.03162 µM
  relative viability: 0.317
LOU-NH91; first compound 0.1 µM
  relative viability: 0.403
LOU-NH91; first compound 0.3162 µM
  relative viability: 0.309
LOU-NH91; first compound 1 µM
  relative viability: 0.379
NCI-H460; first compound 0.01 µM
  relative viability: 0.0439
NCI-H460; first compound 0.03162 µM
  relative viability: 0.0339
NCI-H460; first compound 0.1 µM
  relative viability: 0.036
NCI-H460; first compound 0.3162 µM
  relative viability: 0.026
NCI-H460; first compound 1 µM
  relative viability: 0.0276
NCI-H1734; first compound 0.01 µM
  relative viability: 0.219
NCI-H1734; first compound 0.03162 µM
  relative viability: 0.219
NCI-H1734; first compound 0.1 µM
  relative viability: 0.146
NCI-H1734; first compound 0.3162 µM
  relative viability: 0.162
NCI-H1734; first compound 1 µM
  relative viability: 0.157
NCI-H1793; first compound 0.01 µM
  relative viability: 0.175
NCI-H1793; first compound 0.03162 µM
  relative viability: 0.195
NCI-H1793; first compound 0.1 µM
  relative viability: 0.163
NCI-H1793; first compound 0.3162 µM
  relative viability: 0.403
NCI-H1793; first compound 1 µM
  relative viability: 0.179
NCI-H2228; first compound 0.01 µM
  relative viability: 0.139
NCI-H2228; first compound 0.03162 µM
  relative viability: 0.162
NCI-H2228; first compound 0.1 µM
  relative viability: 0.165
NCI-H2228; first compound 0.3162 µM
  relative viability: 0.133
NCI-H2228; first compound 1 µM
  relative viability: 0.125
ABC-1; first compound 0.01 µM
  relative viability: 0.545
ABC-1; first compound 0.03162 µM
  relative viability: 0.787
ABC-1; first compound 0.1 µM
  relative viability: 0.361
ABC-1; first compound 0.3162 µM
  relative viability: 0.374
ABC-1; first compound 1 µM
  relative viability: 0.305
NCI-H1755; first compound 0.01 µM
  relative viability: 0.498
NCI-H1755; first compound 0.03162 µM
  relative viability: 0.344
NCI-H1755; first compound 0.1 µM
  relative viability: 0.244
NCI-H1755; first compound 0.3162 µM
  relative viability: 0.225
NCI-H1755; first compound 1 µM
  relative viability: 0.275
CAL-12T; first compound 0.01 µM
  relative viability: 0.331
CAL-12T; first compound 0.03162 µM
  relative viability: 0.397
CAL-12T; first compound 0.1 µM
  relative viability: 0.17
CAL-12T; first compound 0.3162 µM
  relative viability: 0.147
CAL-12T; first compound 1 µM
  relative viability: 0.223
NCI-H1395; first compound 0.01 µM
  relative viability: 0.699
NCI-H1395; first compound 0.03162 µM
  relative viability: 0.788
NCI-H1395; first compound 0.1 µM
  relative viability: 0.888
NCI-H1395; first compound 0.3162 µM
  relative viability: 0.468
NCI-H1395; first compound 1 µM
  relative viability: 0.341
NCI-H2087; first compound 0.01 µM
  relative viability: 0.203
NCI-H2087; first compound 0.03162 µM
  relative viability: 0.145
NCI-H2087; first compound 0.1 µM
  relative viability: 0.237
NCI-H2087; first compound 0.3162 µM
  relative viability: 0.173
NCI-H2087; first compound 1 µM
  relative viability: 0.162
ChaGo-K-1; first compound 0.01 µM
  relative viability: 0.601
ChaGo-K-1; first compound 0.03162 µM
  relative viability: 0.578
ChaGo-K-1; first compound 0.1 µM
  relative viability: 0.692
ChaGo-K-1; first compound 0.3162 µM
  relative viability: 0.513
ChaGo-K-1; first compound 1 µM
  relative viability: 0.354
NCI-H1944; first compound 0.01 µM
  relative viability: 0.85
NCI-H1944; first compound 0.03162 µM
  relative viability: 0.838
NCI-H1944; first compound 0.1 µM
  relative viability: 0.871
NCI-H1944; first compound 0.3162 µM
  relative viability: 0.82
NCI-H1944; first compound 1 µM
  relative viability: 0.689
LU99A; first compound 0.01 µM
  relative viability: 0.255
LU99A; first compound 0.03162 µM
  relative viability: 0.265
LU99A; first compound 0.1 µM
  relative viability: 0.357
LU99A; first compound 0.3162 µM
  relative viability: 0.201
LU99A; first compound 1 µM
  relative viability: 0.207
UMC-11; first compound 0.01 µM
  relative viability: 1.14
UMC-11; first compound 0.03162 µM
  relative viability: 0.999
UMC-11; first compound 0.1 µM
  relative viability: 1.09
UMC-11; first compound 0.3162 µM
  relative viability: 0.593
UMC-11; first compound 1 µM
  relative viability: 0.384
RERF-LC-KJ; first compound 0.01 µM
  relative viability: 1.41
RERF-LC-KJ; first compound 0.03162 µM
  relative viability: 1.38
RERF-LC-KJ; first compound 0.1 µM
  relative viability: 1.21
RERF-LC-KJ; first compound 0.3162 µM
  relative viability: 1.2
RERF-LC-KJ; first compound 1 µM
  relative viability: 1.02
NCI-H1651; first compound 0.01 µM
  relative viability: 0.98
NCI-H1651; first compound 0.03162 µM
  relative viability: 0.872
NCI-H1651; first compound 0.1 µM
  relative viability: 0.802
NCI-H1651; first compound 0.3162 µM
  relative viability: 0.487
NCI-H1651; first compound 1 µM
  relative viability: 0.215
NCI-H2405; first compound 0.01 µM
  relative viability: 0.823
NCI-H2405; first compound 0.03162 µM
  relative viability: 0.707
NCI-H2405; first compound 0.1 µM
  relative viability: 0.784
NCI-H2405; first compound 0.3162 µM
  relative viability: 0.672
NCI-H2405; first compound 1 µM
  relative viability: 0.33
LC-2-ad; first compound 0.01 µM
  relative viability: 1.27
LC-2-ad; first compound 0.03162 µM
  relative viability: 1.09
LC-2-ad; first compound 0.1 µM
  relative viability: 1.05
LC-2-ad; first compound 0.3162 µM
  relative viability: 0.991
LC-2-ad; first compound 1 µM
  relative viability: 0.646
NCI-H3122; first compound 0.01 µM
  relative viability: 0.0859
NCI-H3122; first compound 0.03162 µM
  relative viability: 0.0843
NCI-H3122; first compound 0.1 µM
  relative viability: 0.109
NCI-H3122; first compound 0.3162 µM
  relative viability: 0.0927
NCI-H3122; first compound 1 µM
  relative viability: 0.0813
PC-3 [JPC-3]; first compound 0.01 µM
  relative viability: 0.735
PC-3 [JPC-3]; first compound 0.03162 µM
  relative viability: 0.67
PC-3 [JPC-3]; first compound 0.1 µM
  relative viability: 0.702
PC-3 [JPC-3]; first compound 0.3162 µM
  relative viability: 0.713
PC-3 [JPC-3]; first compound 1 µM
  relative viability: 0.673
NCI-H2170; first compound 0.01 µM
  relative viability: 0.644
NCI-H2170; first compound 0.03162 µM
  relative viability: 0.666
NCI-H2170; first compound 0.1 µM
  relative viability: 0.71
NCI-H2170; first compound 0.3162 µM
  relative viability: 0.833
NCI-H2170; first compound 1 µM
  relative viability: 0.724
